According to article PMC8773749, “Combinatorial Virtual Screening Revealed a Novel Scaffold for TNKS Inhibition to Combat Colorectal Cancer” (Biomedicines, 2022):

Experiments:
TNKS-1 [1] = target: T1, TNKS-1 (Homo sapiens, UniProt O95271); assay: TNKS-1 histone ribosylation colorimetric assay, single concentration […]; assay type: biochemical
TNKS-1 [2] = target: T1, TNKS-1; assay: TNKS-1 histone ribosylation colorimetric assay (BPS Bioscience kit); assay type: biochemical

T1 sequence (O95271 whole entry): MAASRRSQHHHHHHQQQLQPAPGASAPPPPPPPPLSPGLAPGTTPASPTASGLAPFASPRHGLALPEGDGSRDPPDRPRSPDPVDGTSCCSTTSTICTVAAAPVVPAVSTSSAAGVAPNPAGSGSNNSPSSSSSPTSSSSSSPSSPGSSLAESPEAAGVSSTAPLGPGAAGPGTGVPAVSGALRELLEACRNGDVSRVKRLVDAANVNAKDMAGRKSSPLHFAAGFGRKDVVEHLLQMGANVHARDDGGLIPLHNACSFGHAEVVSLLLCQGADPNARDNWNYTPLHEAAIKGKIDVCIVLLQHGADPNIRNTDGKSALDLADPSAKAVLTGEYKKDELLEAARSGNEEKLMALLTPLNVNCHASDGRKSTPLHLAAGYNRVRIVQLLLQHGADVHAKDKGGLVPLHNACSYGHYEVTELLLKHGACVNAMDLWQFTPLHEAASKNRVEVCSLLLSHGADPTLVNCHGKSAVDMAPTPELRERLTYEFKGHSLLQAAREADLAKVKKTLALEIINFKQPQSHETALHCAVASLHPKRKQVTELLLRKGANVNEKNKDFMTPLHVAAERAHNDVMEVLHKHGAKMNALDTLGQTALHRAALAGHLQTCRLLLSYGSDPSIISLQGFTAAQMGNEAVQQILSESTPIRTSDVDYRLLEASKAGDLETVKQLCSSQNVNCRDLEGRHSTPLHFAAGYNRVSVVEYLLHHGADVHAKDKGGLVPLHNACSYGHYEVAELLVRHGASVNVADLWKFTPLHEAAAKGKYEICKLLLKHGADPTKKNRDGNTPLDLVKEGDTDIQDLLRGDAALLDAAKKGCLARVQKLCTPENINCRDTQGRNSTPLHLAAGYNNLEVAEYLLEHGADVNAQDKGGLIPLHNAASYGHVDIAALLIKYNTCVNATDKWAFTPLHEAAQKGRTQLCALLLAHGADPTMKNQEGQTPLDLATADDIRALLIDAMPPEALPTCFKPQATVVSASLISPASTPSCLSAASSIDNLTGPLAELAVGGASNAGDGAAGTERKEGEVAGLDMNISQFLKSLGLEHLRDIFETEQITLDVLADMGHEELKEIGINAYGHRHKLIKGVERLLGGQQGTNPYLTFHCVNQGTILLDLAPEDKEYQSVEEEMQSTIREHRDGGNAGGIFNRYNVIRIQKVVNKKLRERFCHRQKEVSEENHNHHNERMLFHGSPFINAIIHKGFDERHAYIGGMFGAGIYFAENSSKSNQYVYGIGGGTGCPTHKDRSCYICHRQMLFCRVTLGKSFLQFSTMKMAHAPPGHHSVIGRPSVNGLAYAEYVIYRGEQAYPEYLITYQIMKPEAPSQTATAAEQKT

SMILES	% of Inhibition at 10 μM / TNKS-1 ^c (TNKS-1 [1])	IC50 (TNKS-1 [2]) [nM]
CN(C)c1ccc2c(c1)oc(=O)c1ccccc12 [NSC102371]	88.54	
COc1ccc(-c2cc3ccccc3c(=O)o2)cc1 [NSC123012]	50.92	
Cc1c(C)c2ccc(N(C)C)cc2[nH]c1=O [NSC295092]		66.1
CN(C)c1ccc2c3c(c(=O)oc2c1)CCC3 [NSC315247]	60.07	
Cc1c(Cl)c2ccc(N(C)C)cc2[nH]c1=O [NSC319963]		21.9
